Entries after “also recorded” stand apart in the source; their conditions may differ. Like-named read-outs stand apart in the source and are kept apart here.
Key:
[1] = target: T1, full-length NS3/4A protease (genotype 1b) (Hepatitis C virus genotype 1b, UniProt Q9WMX2); experiment: biochemical; conditions: for IC50: purified full-length NS3/4A, genotype 1b wild-type; for inhibitory activity (SAR, in words): preliminary SAR of compound 12 analogues; for inhibition at 50 µM: read-out: percent inhibition at 50 µM compound concentration
T1 construct: wild-type HCV NS3 (HCV polyprotein residues 1027–1657); His-tag (N); made in house
Method: All assays were done in duplicate in black 384-well plates (Matrix Technologies). […] 200 nL of 10 mM compound (50 µM final concentrations) were then added and incubated for 5 minutes. Enzyme reactions were initiated with 10 µL of substrate Ac-DE-Dap(QXL520)-EE-Abu-ψ-[COO]AS-C(5-FAMsp)-NH2 (Anaspec) (1 µM final concentration), incubated for 6 minutes, and quenched by 10 µL of 10% SDS as a stop solution. Fluorescence intensity was monitored with a POLARstar OPTIMA microplate reader (BMG LABTECH). Each plate contained a total of 32 positive and 32 negative controls.
A series of compound concentrations (0 to 200 µM final concentration at 2-fold serial dilution) in 100% DMSO were prepared in a 384-well plate. 20 µL of enzyme solution was distributed to wells, and 0.5 µL of varying concentration of compounds were added and incubated for 5 minutes. The enzyme reaction was initiated by adding 5 µL of the substrate, and its activity was continuously monitored for 6 minutes. The IC50 values were calculated by fitting with the Hill equation (1), with OriginPro 8.5 (OriginLab, Inc.) where y is percent inhibition, x is inhibitor concentration, n is the slope of the concentration–response curve (Hill slope), and Vmax is maximal inhibition from two to four independent assays. [drawing 1] (1)

full-length NS3/4A = target: T2, full-length NS3/4A (Hepatitis C virus genotype 1b, UniProt Q9WMX2); experiment: SPR binding assay (dissociation equilibrium constant KD); conditions: 0–200 µM compound, single referenced with blank (ethanolamine)
T2 construct: wild-type HCV NS3 (HCV polyprotein residues 1027–1657); His-tag (N); made in house
Method: The full-length NS3/4A enzyme was prepared in a storage buffer (50 mM HEPES, pH 7.6, 500 mM NaCl, 1 mM DTT, 0.2% Triton X-100, and 20% glycerol) and immobilized on a CM5 sensor chip using standard amine-coupling at 25°C with running buffer HBS-P (10 mM HEPES, 150 mM NaCl, 0.05% surfactant P-20, pH 7.4) using a Biacore T100 instrument. Flow channels 1 and 3 were activated by 1-ethyl-3-(3-dimethylaminopropyl) carbodiimide hydrocholoride (EDC)/N-hydroxy succinimide (NHS) mixture, and the activated surface was blocked by ethanolamine (pH 8.5) as controls. The NS3/4A enzyme was diluted in 10 mM sodium acetate (pH 5.0), and immobilized to flow channel 4 after sensor surface activation with EDC/NHS with a 7 min injection followed by ethanolamine blocking on unoccupied surface area. NS3/4A immobilization level was ∼8,500 response units (RU). An unrelated reference protein (92 kDa) was also immobilized to flow channel 2 as another control to be compared with NS3/4A (74.6 kDa). Fifteen initial hit compounds were prepared as 10 mM DMSO stock solutions. Compound solutions with a series of increasing concentrations (0–200 µM at 1.5-fold dilution) were applied to all four channels at a 10 µL/min flow rate at 25°C. Sensorgrams were analyzed using Biaevaluation software 2.0.3, and response unit difference (ΔRU) values at each concentration were measured during the equilibration phase. Data were either single referenced with a blank (enthanolamine) or double referenced with both blank and reference protein RU values. SigmaPlot 11.0 was used to fit the data to a single rectangular hyperbolic curve to determine KD values. The hyperbola function, y = ymax·x/(KD+x), was used to plot response units and corresponding concentration, where y is the response, ymax is the maximum response, and x is the compound concentration.

Trypsin = target: T3, Trypsin (Homo sapiens, UniProt P07477); experiment: Inhibitor selectivity assay, trypsin (fluorometric); type: biochemical
T3 construct: purchased Sigma
Method: (§1) To test for selectivity, two human serine proteases, Trypsin and Chymotrypsin (Sigma), were tested with the top two hit compounds from HTS using a fluorometric assay. The fluorogenic substrates used in this study were N-benzoyl-L-Arg-7-amido-4-methylcoumarin (Sigma) and N-succinyl-Ala-Ala-Phe-7-amido-4- methylcoumarin (Sigma) for trypsin and chymotrypsin, respectively. All assays were performed in 384-well black plates (Corning) in a total volume of 24 µL of PBS (pH 7.4) buffer containing 0.01% Triton, 0.1 mg/mL BSA, and 2 mM GSH in triplicate. A series of compound concentrations (0 to 200 µM final concentration at 2-fold serial dilution) in 100% DMSO was prepared in a 384-well plate. 20 µL of trypsin (0.01 mg/mL) and chymotrypsin (0.0001 mg/mL) solutions were distributed into wells, and 0.5 µL of varying concentration of compounds were added and incubated for 10 minutes. The enzyme reaction was initiated by adding 5 µL of the substrate (50 µM final concentration), and fluorescence intensity was continuously monitored at excitation/emission wavelengths of 350 nm/460 nm for 10 minutes.

Chymotrypsin = target: T4, Chymotrypsin (Homo sapiens, UniProt P17538); experiment: Inhibitor selectivity assay, chymotrypsin (fluorometric); type: biochemical
T4 construct: purchased Sigma
Method: as §1

[2] = Microsomal stability assay; type: in vitro ADME, mouse; conditions: Balb/c, mouse, microsomes, pH 7.4
Method: A typical incubation mixture (100 µL total volume) for the metabolic stability studies contained 1 µM (final concentration) test compounds, 0.5 mg/mL microsomal protein (pooled Balb/c mouse liver microsomes prepared as described previously), 100 mM Tris-HCl buffer (pH7.4), and NADPH-generating system (5 mM isocitric acid, 0.2 unit/mL isocitric acid dehydrogenase, 5 mM magnesium chloride, 1 mM NADP^+). After pre-incubation at 37°C for 5 minutes, the reactions were started by addition of NADP^+ and further incubated for another 0, 5, 10, and 20 minutes. For control experiments, NADPH and/or liver microsomes were omitted from these incubations. The reactions were terminated by adding 100 µL ice-cold acetonitrile containing phenytoin (1 µM) as an internal standard and kept on ice for 30 minutes, followed by centrifugation at 16,100 g for 15 minutes to obtain the supernatant. Aliquots (5 µL) were then analyzed for substrate disappearance using liquid chromatography-tandem mass spectrometry (Agilent 1200 HPLC interfaced with Applied Biosystems Qtrap 3200) equipped with an electrospray ion source. Chromatographic separation was carried out with a Waters XTerra MS C18 column (2.1×50 mm, 3.5 µm; Agilent Technologies, Santa Clara, CA). The mobile phases consisted of solvent A (0.1% (v/v) aqueous formic acid) and solvent B (acetonitrile). A 250 µL/min flow rate gradient was developed for each test compound over 10 minutes (Table S2 in File S1). Mass detection of test substrates and internal standard were followed in a positive ion mode by examining multiple reaction monitoring (MRM) pairs. The spraying needle voltage was set at 5000 V. Curtain gas was set at 20; gas 1 and gas 2 were set at 45 and 50, respectively; collision assisted dissociation gas was at medium; and the source heater probe temperature was at 500°C. The test compounds were quantified by comparing the ratio of ion currents obtained for the substrates and an internal standards calibration curve. Data acquisition and processing were accomplished using Analyst software (version 1.4.1; Applied Biosystems). Apparent half-lives (t1/2) for the disappearance of parent drugs were calculated from the pseudo-first-order rate constants (ke) obtained by linear regression of plots of log [drug remaining] versus time (GraphPad Prism 5 software, La Jolla, CA) using the equation: t1/2 = 0.693/ke.

[3] = read-out: IC50 Full-length NS3/4A

T1 sequence (Q9WMX2 1658-1711): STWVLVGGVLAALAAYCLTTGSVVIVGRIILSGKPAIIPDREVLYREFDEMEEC
T1 sequence (Q9WMX2 1027-1657): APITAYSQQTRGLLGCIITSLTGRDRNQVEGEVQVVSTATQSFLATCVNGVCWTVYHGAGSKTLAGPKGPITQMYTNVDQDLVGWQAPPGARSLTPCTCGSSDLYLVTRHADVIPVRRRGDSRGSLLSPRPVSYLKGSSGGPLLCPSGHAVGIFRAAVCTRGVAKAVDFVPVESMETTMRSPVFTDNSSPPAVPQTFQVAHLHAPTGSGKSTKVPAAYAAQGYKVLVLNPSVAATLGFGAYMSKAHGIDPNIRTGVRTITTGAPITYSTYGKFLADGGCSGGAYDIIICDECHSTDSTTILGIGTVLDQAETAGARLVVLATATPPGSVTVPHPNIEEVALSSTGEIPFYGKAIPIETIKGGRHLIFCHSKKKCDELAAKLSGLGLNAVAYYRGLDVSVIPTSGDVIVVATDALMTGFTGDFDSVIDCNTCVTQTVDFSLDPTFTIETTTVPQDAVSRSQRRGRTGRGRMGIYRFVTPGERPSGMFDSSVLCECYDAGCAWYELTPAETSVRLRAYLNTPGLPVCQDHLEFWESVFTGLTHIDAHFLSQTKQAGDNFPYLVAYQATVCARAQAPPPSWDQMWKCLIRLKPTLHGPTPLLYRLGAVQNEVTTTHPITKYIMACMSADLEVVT
T2 sequence (Q9WMX2 1658-1711): as the sequence (Q9WMX2 1658-1711) above
T2 sequence (Q9WMX2 1027-1657): as the sequence (Q9WMX2 1027-1657) above
T4 sequence (P17538 19-263): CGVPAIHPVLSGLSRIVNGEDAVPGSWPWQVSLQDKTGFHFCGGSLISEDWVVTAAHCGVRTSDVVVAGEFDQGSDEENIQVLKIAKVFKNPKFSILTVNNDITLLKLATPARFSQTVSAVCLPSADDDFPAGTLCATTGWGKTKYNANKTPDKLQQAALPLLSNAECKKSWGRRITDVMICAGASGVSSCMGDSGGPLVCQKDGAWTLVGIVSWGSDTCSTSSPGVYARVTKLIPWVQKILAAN

With `O=C1c2c(O)ccc(O)c2C(=O)c2c(NCCNCCO)ccc(NCCNCCO)c21` [Compound 4, mitoxantrone, reference compound] the IC50 ([1]; IC50 Full-length NS3/4A) was 3.1 ± 0.1 µM, the “SPR binding pattern to NS3/4A” value (full-length NS3/4A) was “non-specific binding patterns” and the inhibition at 100 µM (Trypsin; 100 µM compound, read-out: Trypsin % Inh at 100 µM) was 22%. For the same molecule, the IC50 (Trypsin; human trypsin) was > 100 µM, the inhibition at 100 µM (Chymotrypsin; 100 µM compound, read-out: Chymotrypsin % Inh at 100 µM) was 0% and the IC50 (Chymotrypsin; human chymotrypsin) was > 100 µM. It also gave a microsomal stability ([2]; 1 µM) of 25 min and a half-life at 1 µM [2] of 25.4 min.
In the case of `Cc1ccc(S(=O)(=O)Nc2ccccc2C(=O)Nc2nc3c(Br)cccc3s2)cc1` [Compound 15], the “SPR binding pattern to NS3/4A” value (full-length NS3/4A) is reported as “lack of binding; also recorded: did not bind”.
`O=C(Cc1csc(NS(=O)(=O)c2ccccc2)n1)Nc1ccccc1` [Compound 16] showed an IC50 [1, 3] of 24.9 µM.
`Cc1cc(Br)ccc1NC(=O)Cc1csc(NS(=O)(=O)c2ccccc2)n1` [Compound 17] gave an IC50 [1, 3] of 23.5 µM.
With `COc1ccc(S(=O)(=O)Nc2nc(CC(=O)Nc3ccc(Br)c(C)c3)cs2)cc1` [Compound 18] the “inhibitory activity (SAR, in words)” value [1] was “Moderate activity” and the IC50 [1, 3] was 14.4 µM.
In the case of `COc1ccc(S(=O)(=O)Nc2nc(CC(=O)Nc3ccc(Br)cc3C)cs2)cc1` [Compound 19], the “inhibitory activity (SAR, in words)” value [1] is reported as “Moderate activity” and the IC50 [1, 3] is reported as 6.2 µM.
With `Cc1ccc(S(=O)(=O)Nc2nc(CC(=O)Nc3ccc(Br)cc3C)cs2)cc1` [Compound 20] the “inhibitory activity (SAR, in words)” value [1] was “complete activity loss”, the IC50 [1, 3] was > 100 µM and the inhibition at 50 µM [1] was 29.1%.
In the case of `CCc1ccc(NC(=O)Cc2csc(NS(=O)(=O)c3ccc(C)cc3)n2)cc1` [Compound 21], the “inhibitory activity (SAR, in words)” value [1] is reported as “complete activity loss”, the IC50 [1, 3] is reported as > 100 µM and the inhibition at 50 µM [1] is reported as 7.2%.
In the case of `O=C(Cc1csc(NS(=O)(=O)c2ccccc2)n1)Nc1cccc(F)c1` [Compound 22], the IC50 [1, 3] is reported as > 100 µM and the inhibition at 50 µM [1] is reported as 41.7%.
For `O=C(Cc1csc(NS(=O)(=O)c2ccc(Cl)cc2)n1)Nc1cccc(F)c1` [Compound 23], the “inhibitory activity (SAR, in words)” value [1] was “Moderate activity” and the IC50 [1, 3] was 24.2 µM.
With `Cc1cccc(NC(=O)Cc2csc(NS(=O)(=O)c3ccc(Cl)cc3)n2)c1` [Compound 24] the “inhibitory activity (SAR, in words)” value [1] was “Moderate activity” and the IC50 [1, 3] was 21.8 µM.
In the case of `Cc1ccc(NC(=O)Cc2csc(NS(=O)(=O)c3ccc(Cl)cc3)n2)cc1Cl` [Compound 25], the IC50 [1, 3] is reported as > 100 µM and the inhibition at 50 µM [1] is reported as 29.2%.
In the case of `Cc1ccc(S(=O)(=O)Nc2ccccc2C(=O)Nc2nc3c(C)ccc(C)c3s2)cc1` [Compound 26], the IC50 [1, 3] is reported as > 100 µM and the inhibition at 50 µM [1] is reported as 0%.
For `Cc1ccc(S(=O)(=O)Nc2ccccc2C(=O)Nc2nc3c(Br)cccc3s2)cc1` [Compound 27], the “inhibitory activity (SAR, in words)” value [1] was “activity is regained” and the IC50 [1, 3] was 15.6 µM.

Reference: article PMC3793977, “High-Throughput Screening (HTS) and Hit Validation to Identify Small Molecule Inhibitors with Activity against NS3/4A proteases from Multiple Hepatitis C Virus Genotypes” (PLoS ONE, 2013)
